± gives the expanded uncertainty stated by the source.
Details: 101.33 kPa, Liquid

Row | SMILES | mass density (278.15 K) | viscosity (278.15 K) | mass density (283.15 K) | viscosity (283.15 K) | mass density (288.15 K) | mass density (293.15 K) | mass density (298.15 K) | mass density (303.15 K) | mass density (308.15 K) | mass density (313.15 K) | mass density (318.15 K) | mass density (323.15 K) | mass density (328.15 K) | mass density (333.15 K) | mass density (338.15 K) | mass density (343.15 K) | mass density (348.15 K) | mass density (353.15 K) | mass density (358.15 K) | mass density (363.15 K) | further results
1 | CCC[n+]1cccc(C)c1.O=S(=O)([N-]S(=O)(=O)C(F)(F)F)C(F)(F)F | 1467.1 ± 1.9 kg/m3 | 159.86 ± 10 mPa·s | 1462.3 ± 1.9 kg/m3 | 117.81 ± 5.5 mPa·s | 1457.5 ± 1.8 kg/m3 | 1452.8 ± 1.8 kg/m3 | 1447.5 ± 1.8 kg/m3 | 1442.8 ± 1.8 kg/m3 | 1438.1 ± 1.8 kg/m3 | 1433.4 ± 1.8 kg/m3 | 1428.8 ± 1.8 kg/m3 | 1424.1 ± 1.8 kg/m3 | 1419.5 ± 1.8 kg/m3 | 1414.9 ± 1.8 kg/m3 | 1410.3 ± 1.7 kg/m3 | 1405.7 ± 1.7 kg/m3 | 1401.1 ± 1.7 kg/m3 | 1396.6 ± 1.7 kg/m3 | 1392.1 ± 1.7 kg/m3 | 1387.7 ± 1.7 kg/m3 | viscosity (288.15 K): 89.22 ± 2.9 mPa·s; viscosity (293.15 K): 69.11 ± 1.3 mPa·s; viscosity (298.15 K): 54.94 ± 0.55 mPa·s; viscosity (303.15 K): 44.22 ± 0.64 mPa·s; viscosity (308.15 K): 36.15 ± 0.53 mPa·s; viscosity (313.15 K): 29.98 ± 0.44 mPa·s; viscosity (318.15 K): 25.2 ± 0.37 mPa·s; viscosity (323.15 K): 21.43 ± 0.32 mPa·s; viscosity (328.15 K): 18.41 ± 0.27 mPa·s; viscosity (333.15 K): 15.97 ± 0.24 mPa·s; viscosity (338.15 K): 13.97 ± 0.21 mPa·s; viscosity (343.15 K): 12.31 ± 0.19 mPa·s; viscosity (348.15 K): 10.93 ± 0.17 mPa·s; viscosity (353.15 K): 9.769 ± 0.15 mPa·s; viscosity (358.15 K): 8.782 ± 0.14 mPa·s; viscosity (363.15 K): 7.937 ± 0.12 mPa·s
2 | CCCC[n+]1cccc(C)c1.O=S(=O)([N-]S(=O)(=O)C(F)(F)F)C(F)(F)F | 1431.2 ± 1.8 kg/m3 | – | 1426.6 ± 1.8 kg/m3 | – | 1421.9 ± 1.8 kg/m3 | 1417.4 ± 1.8 kg/m3 | 1412.8 ± 1.7 kg/m3 | 1408.2 ± 1.7 kg/m3 | 1403.6 ± 1.7 kg/m3 | 1399 ± 1.7 kg/m3 | 1394.5 ± 1.7 kg/m3 | 1389.9 ± 1.7 kg/m3 | 1385.4 ± 1.7 kg/m3 | 1380.9 ± 1.7 kg/m3 | 1376.4 ± 1.7 kg/m3 | 1371.9 ± 1.7 kg/m3 | 1367.4 ± 1.7 kg/m3 | 1362.9 ± 1.6 kg/m3 | 1358.5 ± 1.6 kg/m3 | 1354.1 ± 1.6 kg/m3 | viscosity (278.15 K, Capillary tube (Ostwald / Ubbelohde) method): 195.43 ± 4.6 mPa·s; viscosity (283.15 K, Capillary tube (Ostwald / Ubbelohde) method): 142.73 ± 2.7 mPa·s; viscosity (288.15 K, Capillary tube (Ostwald / Ubbelohde) method): 107.15 ± 1.6 mPa·s; viscosity (293.15 K, Capillary tube (Ostwald / Ubbelohde) method): 82.19 ± 0.97 mPa·s; viscosity (298.15 K, Capillary tube (Ostwald / Ubbelohde) method): 64.36 ± 0.62 mPa·s; viscosity (303.15 K, Capillary tube (Ostwald / Ubbelohde) method): 51.39 ± 0.45 mPa·s; viscosity (308.15 K, Capillary tube (Ostwald / Ubbelohde) method): 41.64 ± 0.4 mPa·s; viscosity (313.15 K, Capillary tube (Ostwald / Ubbelohde) method): 34.26 ± 0.33 mPa·s; viscosity (318.15 K, Capillary tube (Ostwald / Ubbelohde) method): 28.57 ± 0.27 mPa·s; viscosity (323.15 K, Capillary tube (Ostwald / Ubbelohde) method): 24.1 ± 0.23 mPa·s; viscosity (328.15 K, Capillary tube (Ostwald / Ubbelohde) method): 20.57 ± 0.2 mPa·s; viscosity (333.15 K, Capillary tube (Ostwald / Ubbelohde) method): 17.71 ± 0.17 mPa·s; viscosity (338.15 K, Capillary tube (Ostwald / Ubbelohde) method): 15.38 ± 0.15 mPa·s; viscosity (343.15 K, Capillary tube (Ostwald / Ubbelohde) method): 13.47 ± 0.13 mPa·s; viscosity (348.15 K, Capillary tube (Ostwald / Ubbelohde) method): 11.9 ± 0.11 mPa·s; viscosity (353.15 K, Capillary tube (Ostwald / Ubbelohde) method): 10.56 ± 0.1 mPa·s; viscosity (358.15 K, Capillary tube (Ostwald / Ubbelohde) method): 9.44 ± 0.091 mPa·s; viscosity (363.15 K, Capillary tube (Ostwald / Ubbelohde) method): 8.484 ± 0.082 mPa·s
3 | CCCC[n+]1ccc(C)cc1.O=S(=O)([N-]S(=O)(=O)C(F)(F)F)C(F)(F)F | 1431 ± 1.8 kg/m3 | 169.9 ± 11 mPa·s | 1426.3 ± 1.8 kg/m3 | 124.19 ± 6.2 mPa·s | 1421.6 ± 1.8 kg/m3 | 1416.9 ± 1.8 kg/m3 | 1412.2 ± 1.7 kg/m3 | 1407.6 ± 1.7 kg/m3 | 1402.9 ± 1.7 kg/m3 | 1398.3 ± 1.7 kg/m3 | 1393.6 ± 1.7 kg/m3 | 1389 ± 1.7 kg/m3 | 1384.4 ± 1.7 kg/m3 | 1379.8 ± 1.7 kg/m3 | 1375.3 ± 1.7 kg/m3 | 1370.7 ± 1.7 kg/m3 | 1366.2 ± 1.7 kg/m3 | 1361.7 ± 1.6 kg/m3 | 1357.2 ± 1.6 kg/m3 | 1352.7 ± 1.6 kg/m3 | viscosity (288.15 K): 93.27 ± 3.2 mPa·s; viscosity (293.15 K): 71.72 ± 1.5 mPa·s; viscosity (298.15 K): 56.33 ± 0.6 mPa·s; viscosity (303.15 K): 45.07 ± 0.66 mPa·s; viscosity (308.15 K): 36.67 ± 0.54 mPa·s; viscosity (313.15 K): 30.28 ± 0.44 mPa·s; viscosity (318.15 K): 25.34 ± 0.37 mPa·s; viscosity (323.15 K): 21.45 ± 0.32 mPa·s; viscosity (328.15 K): 18.36 ± 0.27 mPa·s; viscosity (333.15 K): 15.87 ± 0.24 mPa·s; viscosity (338.15 K): 13.82 ± 0.21 mPa·s; viscosity (343.15 K): 12.13 ± 0.18 mPa·s; viscosity (348.15 K): 10.72 ± 0.16 mPa·s; viscosity (353.15 K): 9.54 ± 0.15 mPa·s; viscosity (358.15 K): 8.531 ± 0.13 mPa·s; viscosity (363.15 K): 7.673 ± 0.12 mPa·s
4 | CCCCCCCC[n+]1cccc(C)c1 [1-octyl-3-methylpyridinium] | 1347.2 ± 1.6 kg/m3 | 398.72 ± 45 mPa·s | 1342.7 ± 1.6 kg/m3 | 281.38 ± 26 mPa·s | 1338.2 ± 1.6 kg/m3 | 1333.8 ± 1.6 kg/m3 | 1329.5 ± 1.6 kg/m3 | 1325.2 ± 1.6 kg/m3 | 1320.9 ± 1.6 kg/m3 | 1316.6 ± 1.5 kg/m3 | 1312.3 ± 1.5 kg/m3 | 1308 ± 1.5 kg/m3 | 1303.7 ± 1.5 kg/m3 | 1299.5 ± 1.5 kg/m3 | 1295.2 ± 1.5 kg/m3 | 1290.9 ± 1.5 kg/m3 | 1286.7 ± 1.5 kg/m3 | 1282.5 ± 1.5 kg/m3 | 1278.3 ± 1.5 kg/m3 | 1274.1 ± 1.5 kg/m3 | viscosity (288.15 K): 204.35 ± 16 mPa·s; viscosity (293.15 K): 151.98 ± 9.2 mPa·s; viscosity (298.15 K): 115.55 ± 5.3 mPa·s; viscosity (303.15 K): 89.6 ± 2.9 mPa·s; viscosity (308.15 K): 70.72 ± 1.4 mPa·s; viscosity (313.15 K): 56.77 ± 0.62 mPa·s; viscosity (318.15 K): 46.23 ± 0.67 mPa·s; viscosity (323.15 K): 38.14 ± 0.56 mPa·s; viscosity (328.15 K): 31.86 ± 0.47 mPa·s; viscosity (333.15 K): 26.91 ± 0.4 mPa·s; viscosity (338.15 K): 22.95 ± 0.34 mPa·s; viscosity (343.15 K): 19.77 ± 0.29 mPa·s; viscosity (348.15 K): 17.16 ± 0.26 mPa·s; viscosity (353.15 K): 15.02 ± 0.23 mPa·s; viscosity (358.15 K): 13.23 ± 0.2 mPa·s; viscosity (363.15 K): 11.74 ± 0.18 mPa·s
5 | CCCC[n+]1ccccc1.O=S(=O)([N-]S(=O)(=O)C(F)(F)F)C(F)(F)F [1-butylpyridinium bis[(trifluoromethyl)sulfonyl]imide] | 1467.6 ± 1.9 kg/m3 | 181.81 ± 13 mPa·s | 1462.8 ± 1.9 kg/m3 | 133.34 ± 7.1 mPa·s | 1458.1 ± 1.8 kg/m3 | 1453.4 ± 1.8 kg/m3 | 1448.7 ± 1.8 kg/m3 | 1444 ± 1.8 kg/m3 | 1439.3 ± 1.8 kg/m3 | 1434.6 ± 1.8 kg/m3 | 1430 ± 1.8 kg/m3 | 1425.4 ± 1.8 kg/m3 | 1420.7 ± 1.8 kg/m3 | 1416.1 ± 1.8 kg/m3 | 1411.6 ± 1.7 kg/m3 | 1407 ± 1.7 kg/m3 | 1402.5 ± 1.7 kg/m3 | 1398 ± 1.7 kg/m3 | 1393.5 ± 1.7 kg/m3 | 1389 ± 1.7 kg/m3 | viscosity (288.15 K): 100.65 ± 3.9 mPa·s; viscosity (293.15 K): 77.72 ± 1.9 mPa·s; viscosity (298.15 K): 61.25 ± 0.82 mPa·s; viscosity (303.15 K): 49.15 ± 0.72 mPa·s; viscosity (308.15 K): 40.09 ± 0.58 mPa·s; viscosity (313.15 K): 33.17 ± 0.49 mPa·s; viscosity (318.15 K): 27.81 ± 0.41 mPa·s; viscosity (323.15 K): 23.59 ± 0.35 mPa·s; viscosity (328.15 K): 20.23 ± 0.3 mPa·s; viscosity (333.15 K): 17.51 ± 0.26 mPa·s; viscosity (338.15 K): 15.28 ± 0.23 mPa·s; viscosity (343.15 K): 13.44 ± 0.2 mPa·s; viscosity (348.15 K): 11.91 ± 0.18 mPa·s; viscosity (353.15 K): 10.62 ± 0.16 mPa·s; viscosity (358.15 K): 9.528 ± 0.15 mPa·s; viscosity (363.15 K): 8.594 ± 0.13 mPa·s
6 | CCCCCC[n+]1ccccc1.O=S(=O)([N-]S(=O)(=O)C(F)(F)F)C(F)(F)F [1-hexylpyridinium bis(trifluromethylsulfonyl)imide] | 1412.5 ± 1.7 kg/m3 | 322.08 ± 32 mPa·s | 1407.8 ± 1.7 kg/m3 | 229.05 ± 19 mPa·s | 1403.2 ± 1.7 kg/m3 | 1398.7 ± 1.7 kg/m3 | 1394.2 ± 1.7 kg/m3 | 1389.7 ± 1.7 kg/m3 | 1385.2 ± 1.7 kg/m3 | 1380.7 ± 1.7 kg/m3 | 1376.3 ± 1.7 kg/m3 | 1371.8 ± 1.7 kg/m3 | 1367.3 ± 1.7 kg/m3 | 1362.9 ± 1.6 kg/m3 | 1358.5 ± 1.6 kg/m3 | 1354 ± 1.6 kg/m3 | 1349.6 ± 1.6 kg/m3 | 1345.3 ± 1.6 kg/m3 | 1340.9 ± 1.6 kg/m3 | 1336.6 ± 1.6 kg/m3 | viscosity (288.15 K): 167.56 ± 11 mPa·s; viscosity (293.15 K): 125.56 ± 6.3 mPa·s; viscosity (298.15 K): 96.21 ± 3.5 mPa·s; viscosity (303.15 K): 75.22 ± 1.7 mPa·s; viscosity (308.15 K): 59.86 ± 0.75 mPa·s; viscosity (313.15 K): 48.42 ± 0.7 mPa·s; viscosity (318.15 K): 39.74 ± 0.58 mPa·s; viscosity (323.15 K): 33.04 ± 0.48 mPa·s; viscosity (328.15 K): 27.79 ± 0.41 mPa·s; viscosity (333.15 K): 23.64 ± 0.35 mPa·s; viscosity (338.15 K): 20.3 ± 0.3 mPa·s; viscosity (343.15 K): 17.58 ± 0.26 mPa·s; viscosity (348.15 K): 15.35 ± 0.23 mPa·s; viscosity (353.15 K): 13.51 ± 0.2 mPa·s; viscosity (358.15 K): 11.96 ± 0.18 mPa·s; viscosity (363.15 K): 10.66 ± 0.16 mPa·s

Reference: the NIST ThermoML archive (doi:10.1021/je100377k)
